Results reported in publication PMC9851200, “Multiparameter phenotypic screening for endogenous TFEB and TFE3 translocation identifies novel chemical series modulating lysosome function” (Autophagy, 2022).
“Also recorded” adds a separate entry of the source.

How the values were obtained:
TFE3 = TFE3 translocation in CRISPRi PRKD2 or PRKD3 knockdown SH-SY5Y cells; format: cell-based; details: SH-SY5Y dCas9-KRAB, Scr, PRKD2 or PRKD3 targeting guides, increasing concentrations
[1] = target: T1, kinases (KINOMEscan panel) (Homo sapiens, UniProt O14965); design: method as in original PKIS2 published data; details: Published KINOMEscan; ref original PKIS2 published data; cited from earlier work
T1 sequence (O14965 1-403): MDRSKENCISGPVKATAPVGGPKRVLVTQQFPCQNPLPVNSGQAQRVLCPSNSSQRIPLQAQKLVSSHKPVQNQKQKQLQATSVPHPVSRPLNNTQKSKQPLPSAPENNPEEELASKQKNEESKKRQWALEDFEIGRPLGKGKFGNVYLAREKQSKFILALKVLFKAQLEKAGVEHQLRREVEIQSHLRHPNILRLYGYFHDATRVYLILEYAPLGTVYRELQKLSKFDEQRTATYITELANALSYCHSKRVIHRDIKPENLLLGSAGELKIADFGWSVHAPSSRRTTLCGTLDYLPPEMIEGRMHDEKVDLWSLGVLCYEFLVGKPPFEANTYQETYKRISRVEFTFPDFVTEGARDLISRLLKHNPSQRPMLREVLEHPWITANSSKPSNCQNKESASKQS

[2] = target: T2, kinases (KINOMEscan panel) (Homo sapiens, UniProt P33981); design: method as in original PKIS2 published data; details: Published KINOMEscan; ref original PKIS2 published data; cited from earlier work
T2 sequence (P33981 1-857): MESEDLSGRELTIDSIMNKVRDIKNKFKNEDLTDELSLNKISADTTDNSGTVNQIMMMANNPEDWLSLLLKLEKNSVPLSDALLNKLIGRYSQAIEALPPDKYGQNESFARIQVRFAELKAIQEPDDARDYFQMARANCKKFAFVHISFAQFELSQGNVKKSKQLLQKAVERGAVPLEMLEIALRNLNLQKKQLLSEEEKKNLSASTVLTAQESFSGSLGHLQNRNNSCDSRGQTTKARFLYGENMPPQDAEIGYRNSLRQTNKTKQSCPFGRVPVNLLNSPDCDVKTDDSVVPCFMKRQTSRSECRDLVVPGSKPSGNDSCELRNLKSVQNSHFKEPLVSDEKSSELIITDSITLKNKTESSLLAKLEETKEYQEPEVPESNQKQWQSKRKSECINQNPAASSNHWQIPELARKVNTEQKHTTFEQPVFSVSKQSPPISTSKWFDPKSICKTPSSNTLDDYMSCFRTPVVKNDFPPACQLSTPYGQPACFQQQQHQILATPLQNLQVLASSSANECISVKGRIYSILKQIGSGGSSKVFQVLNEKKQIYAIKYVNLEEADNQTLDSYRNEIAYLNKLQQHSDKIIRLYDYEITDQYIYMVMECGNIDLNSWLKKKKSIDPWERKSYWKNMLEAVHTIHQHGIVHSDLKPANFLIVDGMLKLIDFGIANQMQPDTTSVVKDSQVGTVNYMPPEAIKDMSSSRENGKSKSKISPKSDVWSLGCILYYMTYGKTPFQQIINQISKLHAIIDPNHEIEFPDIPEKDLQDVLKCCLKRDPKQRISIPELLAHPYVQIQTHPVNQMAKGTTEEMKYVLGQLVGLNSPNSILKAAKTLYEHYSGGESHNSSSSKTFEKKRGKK

[3] = target: T3, kinases (KINOMEscan panel) (Homo sapiens, UniProt P51813); design: method as in original PKIS2 published data; details: BMX; Published KINOMEscan; ref original PKIS2 published data; cited from earlier work
T3 sequence (P51813 1-675): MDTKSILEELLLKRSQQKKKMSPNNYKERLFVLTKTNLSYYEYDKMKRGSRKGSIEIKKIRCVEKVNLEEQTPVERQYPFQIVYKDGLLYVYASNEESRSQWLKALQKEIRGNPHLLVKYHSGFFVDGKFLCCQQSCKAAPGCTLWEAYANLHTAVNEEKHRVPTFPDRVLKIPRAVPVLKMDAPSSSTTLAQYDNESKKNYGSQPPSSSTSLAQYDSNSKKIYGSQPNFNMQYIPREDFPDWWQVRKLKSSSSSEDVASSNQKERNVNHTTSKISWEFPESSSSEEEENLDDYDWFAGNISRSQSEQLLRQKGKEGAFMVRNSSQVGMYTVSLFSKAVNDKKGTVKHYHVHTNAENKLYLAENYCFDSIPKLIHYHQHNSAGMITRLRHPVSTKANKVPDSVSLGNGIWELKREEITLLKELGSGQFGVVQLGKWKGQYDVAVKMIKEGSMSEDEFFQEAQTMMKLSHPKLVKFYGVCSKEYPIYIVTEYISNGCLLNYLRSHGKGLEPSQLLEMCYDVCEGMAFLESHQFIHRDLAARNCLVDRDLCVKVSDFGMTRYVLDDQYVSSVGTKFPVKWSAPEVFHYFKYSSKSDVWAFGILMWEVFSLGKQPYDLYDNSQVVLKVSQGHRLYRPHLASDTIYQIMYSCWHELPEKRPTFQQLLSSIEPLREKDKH

[4] = target: kinases (KINOMEscan panel) (Homo sapiens, UniProt P78362); design: method as in original PKIS2 published data; details: SRPK2; Published KINOMEscan; ref original PKIS2 published data; cited from earlier work
[5] = target: kinases (KINOMEscan panel) (Homo sapiens, UniProt Q8IU85); design: method as in original PKIS2 published data; details: kinase CAMK1D; Published KINOMEscan; ref original PKIS2 published data; cited from earlier work
MAPK10/JNK3 = MAPK10/JNK3 (Homo sapiens, UniProt P53779); format: binding
MINK1/MINK = MINK1/MINK (Homo sapiens, UniProt Q8N4C8); format: binding
MINK1/MINK, sequence (Q8N4C8 whole entry): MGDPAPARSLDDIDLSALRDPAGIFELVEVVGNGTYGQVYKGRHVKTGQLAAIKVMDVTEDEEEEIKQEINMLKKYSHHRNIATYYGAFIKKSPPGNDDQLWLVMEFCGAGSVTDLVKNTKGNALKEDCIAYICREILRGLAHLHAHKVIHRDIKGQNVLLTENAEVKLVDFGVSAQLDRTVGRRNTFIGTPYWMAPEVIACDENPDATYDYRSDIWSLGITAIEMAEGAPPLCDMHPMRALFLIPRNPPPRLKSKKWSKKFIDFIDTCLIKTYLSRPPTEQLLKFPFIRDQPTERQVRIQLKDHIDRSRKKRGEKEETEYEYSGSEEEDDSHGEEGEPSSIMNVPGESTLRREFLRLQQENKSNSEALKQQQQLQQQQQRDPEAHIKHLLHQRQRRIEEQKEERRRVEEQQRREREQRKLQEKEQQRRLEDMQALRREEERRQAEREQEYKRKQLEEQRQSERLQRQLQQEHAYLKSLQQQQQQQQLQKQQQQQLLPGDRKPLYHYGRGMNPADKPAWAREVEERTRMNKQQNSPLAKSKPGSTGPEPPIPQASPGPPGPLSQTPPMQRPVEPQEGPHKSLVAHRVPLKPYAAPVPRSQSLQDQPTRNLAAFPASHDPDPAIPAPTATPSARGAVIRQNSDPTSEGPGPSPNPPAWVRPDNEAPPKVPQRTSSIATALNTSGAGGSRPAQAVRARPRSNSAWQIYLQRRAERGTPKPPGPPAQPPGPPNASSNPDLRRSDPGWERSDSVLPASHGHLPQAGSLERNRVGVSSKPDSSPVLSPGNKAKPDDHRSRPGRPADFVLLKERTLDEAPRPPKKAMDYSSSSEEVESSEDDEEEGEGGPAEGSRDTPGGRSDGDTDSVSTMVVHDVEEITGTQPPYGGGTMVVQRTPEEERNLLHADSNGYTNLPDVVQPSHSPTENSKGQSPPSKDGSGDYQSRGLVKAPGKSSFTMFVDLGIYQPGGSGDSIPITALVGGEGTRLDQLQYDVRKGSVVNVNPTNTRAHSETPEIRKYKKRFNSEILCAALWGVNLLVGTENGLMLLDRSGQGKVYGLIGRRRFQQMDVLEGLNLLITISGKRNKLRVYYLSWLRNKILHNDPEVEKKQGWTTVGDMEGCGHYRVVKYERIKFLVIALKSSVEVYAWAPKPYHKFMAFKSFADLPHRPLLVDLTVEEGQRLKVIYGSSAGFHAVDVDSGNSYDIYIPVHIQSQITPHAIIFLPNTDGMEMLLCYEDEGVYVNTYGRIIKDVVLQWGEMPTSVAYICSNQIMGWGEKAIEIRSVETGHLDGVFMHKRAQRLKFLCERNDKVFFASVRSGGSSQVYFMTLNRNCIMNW

MAPK10/JNK3, sequence (P53779 whole entry): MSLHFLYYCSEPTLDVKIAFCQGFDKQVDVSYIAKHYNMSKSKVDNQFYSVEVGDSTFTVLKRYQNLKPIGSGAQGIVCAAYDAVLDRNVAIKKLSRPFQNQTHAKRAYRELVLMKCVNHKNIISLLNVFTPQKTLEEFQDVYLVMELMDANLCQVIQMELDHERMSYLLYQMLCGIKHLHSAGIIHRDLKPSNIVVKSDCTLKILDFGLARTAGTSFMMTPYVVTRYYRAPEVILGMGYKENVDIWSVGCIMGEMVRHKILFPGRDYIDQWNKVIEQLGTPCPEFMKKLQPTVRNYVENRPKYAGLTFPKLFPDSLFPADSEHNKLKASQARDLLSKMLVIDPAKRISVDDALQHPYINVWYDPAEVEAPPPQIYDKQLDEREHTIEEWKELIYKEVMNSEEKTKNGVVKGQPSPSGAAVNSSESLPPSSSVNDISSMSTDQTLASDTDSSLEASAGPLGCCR
kinases (KINOMEscan panel) (Homo sapiens, UniProt Q8IU85), sequence (Q8IU85 whole entry): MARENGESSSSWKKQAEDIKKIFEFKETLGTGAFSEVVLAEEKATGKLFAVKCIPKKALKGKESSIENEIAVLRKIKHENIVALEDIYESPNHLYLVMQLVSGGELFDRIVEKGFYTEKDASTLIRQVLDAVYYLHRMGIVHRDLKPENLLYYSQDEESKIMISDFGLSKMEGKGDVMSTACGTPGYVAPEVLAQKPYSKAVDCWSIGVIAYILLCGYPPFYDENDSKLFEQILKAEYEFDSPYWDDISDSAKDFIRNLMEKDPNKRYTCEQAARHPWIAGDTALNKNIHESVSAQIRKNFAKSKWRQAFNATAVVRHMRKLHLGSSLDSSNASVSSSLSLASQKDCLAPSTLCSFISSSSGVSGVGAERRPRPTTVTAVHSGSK
kinases (KINOMEscan panel) (Homo sapiens, UniProt P78362), sequence (P78362 whole entry): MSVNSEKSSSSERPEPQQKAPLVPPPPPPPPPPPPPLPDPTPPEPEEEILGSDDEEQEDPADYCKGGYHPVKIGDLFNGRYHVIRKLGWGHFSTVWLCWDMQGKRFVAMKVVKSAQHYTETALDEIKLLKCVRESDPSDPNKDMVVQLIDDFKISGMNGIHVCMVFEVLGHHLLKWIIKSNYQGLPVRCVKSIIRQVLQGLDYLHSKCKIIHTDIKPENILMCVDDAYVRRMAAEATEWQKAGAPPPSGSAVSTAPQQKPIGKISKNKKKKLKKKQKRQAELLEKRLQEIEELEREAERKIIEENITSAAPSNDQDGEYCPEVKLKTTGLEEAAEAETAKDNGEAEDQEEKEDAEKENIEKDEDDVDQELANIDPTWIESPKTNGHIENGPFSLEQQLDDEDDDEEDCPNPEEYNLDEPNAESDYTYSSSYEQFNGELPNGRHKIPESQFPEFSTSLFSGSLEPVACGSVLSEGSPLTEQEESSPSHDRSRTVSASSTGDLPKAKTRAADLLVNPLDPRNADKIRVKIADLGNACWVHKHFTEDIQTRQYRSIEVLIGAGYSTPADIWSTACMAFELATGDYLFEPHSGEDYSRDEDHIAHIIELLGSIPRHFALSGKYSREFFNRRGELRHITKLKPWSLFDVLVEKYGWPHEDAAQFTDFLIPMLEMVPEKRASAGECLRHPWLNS

Structure (SMILES): Cc1cccc(-c2nc(Nc3ccc4ncsc4c3)c3ccccc3n2)n1 [NK140]
- TFE3 nuclear translocation in response to compound after PRKD knockdown (in words) (TFE3): no increased activity in the TFE3 translocation assay; also recorded: not altered by knockdown of PRKD

Structure (SMILES): Cc1cccc(-c2nc(Nc3ccncc3)c3ccccc3n2)n1 [NK215]
- KINOMEscan AURKA [1]: 0
- KINOMEscan TTK [2]: 10
- KINOMEscan BMX [3]: 6
- KINOMEscan SRPK2 [4]: 54
- KINOMEscan CAMK1D [5]: 3

Structure (SMILES): Cc1cccc(-c2nc(N(C)c3ccc4ncsc4c3)c3ccccc3n2)n1 [NK-161]
- KINOMEscan MAPK10/JNK3 (MAPK10/JNK3): 16
- KINOMEscan MINK1/MINK (MINK1/MINK): 22
